How the values were obtained:
[1] = target: Tyrosine-protein kinase Lck (Homo sapiens, UniProt P06239); experiment: Inhibition of Lck
[2] = target: T1, Tyrosine-protein kinase Mer (Homo sapiens, UniProt Q12866); experiment: Inhibition of Mer
T1 sequence (Q12866 whole entry): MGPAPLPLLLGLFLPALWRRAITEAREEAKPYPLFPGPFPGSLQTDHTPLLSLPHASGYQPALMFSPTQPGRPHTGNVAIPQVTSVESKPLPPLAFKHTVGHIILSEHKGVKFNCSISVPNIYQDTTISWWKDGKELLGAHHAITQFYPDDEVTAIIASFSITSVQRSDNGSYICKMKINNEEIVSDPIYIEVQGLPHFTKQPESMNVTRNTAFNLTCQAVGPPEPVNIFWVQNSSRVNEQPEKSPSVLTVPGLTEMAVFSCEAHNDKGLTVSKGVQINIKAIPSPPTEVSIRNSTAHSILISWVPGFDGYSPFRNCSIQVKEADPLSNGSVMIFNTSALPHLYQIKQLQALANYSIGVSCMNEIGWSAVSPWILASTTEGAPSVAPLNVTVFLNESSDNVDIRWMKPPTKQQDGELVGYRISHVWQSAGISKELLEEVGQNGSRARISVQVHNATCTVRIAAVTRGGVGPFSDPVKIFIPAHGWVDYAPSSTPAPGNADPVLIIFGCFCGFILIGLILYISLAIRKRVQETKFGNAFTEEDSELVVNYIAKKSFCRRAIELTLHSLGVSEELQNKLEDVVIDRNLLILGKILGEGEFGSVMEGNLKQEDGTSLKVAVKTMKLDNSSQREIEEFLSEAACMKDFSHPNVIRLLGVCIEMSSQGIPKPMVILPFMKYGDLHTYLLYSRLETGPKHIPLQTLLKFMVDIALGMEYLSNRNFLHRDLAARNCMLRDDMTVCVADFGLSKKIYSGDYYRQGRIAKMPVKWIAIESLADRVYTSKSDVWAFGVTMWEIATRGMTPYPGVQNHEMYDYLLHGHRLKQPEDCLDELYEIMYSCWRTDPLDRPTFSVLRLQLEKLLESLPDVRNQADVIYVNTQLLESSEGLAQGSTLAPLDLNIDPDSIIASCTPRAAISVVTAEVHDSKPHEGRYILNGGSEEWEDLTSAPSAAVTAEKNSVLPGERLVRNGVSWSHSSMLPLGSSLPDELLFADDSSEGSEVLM

[3] = Inhibition of PKA
[4] = target: Casein kinase I isoform delta (Homo sapiens, UniProt P48730); experiment: Inhibition of CK1delta
[5] = target: T2, Serine/threonine-protein kinase Chk1 (Homo sapiens, UniProt O14757); experiment: Inhibition of Chk1
T2 sequence (O14757 whole entry): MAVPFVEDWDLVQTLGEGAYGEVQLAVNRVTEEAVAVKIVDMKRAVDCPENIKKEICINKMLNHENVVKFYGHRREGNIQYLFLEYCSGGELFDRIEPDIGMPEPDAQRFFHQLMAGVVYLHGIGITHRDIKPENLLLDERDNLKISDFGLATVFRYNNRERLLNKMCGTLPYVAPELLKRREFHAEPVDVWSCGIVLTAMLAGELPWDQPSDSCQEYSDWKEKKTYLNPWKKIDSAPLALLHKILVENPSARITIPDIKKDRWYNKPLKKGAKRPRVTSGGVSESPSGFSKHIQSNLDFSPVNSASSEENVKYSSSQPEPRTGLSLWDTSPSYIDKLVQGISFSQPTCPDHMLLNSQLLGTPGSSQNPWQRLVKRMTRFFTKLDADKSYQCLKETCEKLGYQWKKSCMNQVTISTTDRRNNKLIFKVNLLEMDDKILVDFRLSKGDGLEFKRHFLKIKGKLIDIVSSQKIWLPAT

[6] = target: T3, Tyrosine-protein kinase receptor UFO (Homo sapiens, UniProt P30530); experiment: Inhibition of Axl
T3 sequence (P30530 whole entry): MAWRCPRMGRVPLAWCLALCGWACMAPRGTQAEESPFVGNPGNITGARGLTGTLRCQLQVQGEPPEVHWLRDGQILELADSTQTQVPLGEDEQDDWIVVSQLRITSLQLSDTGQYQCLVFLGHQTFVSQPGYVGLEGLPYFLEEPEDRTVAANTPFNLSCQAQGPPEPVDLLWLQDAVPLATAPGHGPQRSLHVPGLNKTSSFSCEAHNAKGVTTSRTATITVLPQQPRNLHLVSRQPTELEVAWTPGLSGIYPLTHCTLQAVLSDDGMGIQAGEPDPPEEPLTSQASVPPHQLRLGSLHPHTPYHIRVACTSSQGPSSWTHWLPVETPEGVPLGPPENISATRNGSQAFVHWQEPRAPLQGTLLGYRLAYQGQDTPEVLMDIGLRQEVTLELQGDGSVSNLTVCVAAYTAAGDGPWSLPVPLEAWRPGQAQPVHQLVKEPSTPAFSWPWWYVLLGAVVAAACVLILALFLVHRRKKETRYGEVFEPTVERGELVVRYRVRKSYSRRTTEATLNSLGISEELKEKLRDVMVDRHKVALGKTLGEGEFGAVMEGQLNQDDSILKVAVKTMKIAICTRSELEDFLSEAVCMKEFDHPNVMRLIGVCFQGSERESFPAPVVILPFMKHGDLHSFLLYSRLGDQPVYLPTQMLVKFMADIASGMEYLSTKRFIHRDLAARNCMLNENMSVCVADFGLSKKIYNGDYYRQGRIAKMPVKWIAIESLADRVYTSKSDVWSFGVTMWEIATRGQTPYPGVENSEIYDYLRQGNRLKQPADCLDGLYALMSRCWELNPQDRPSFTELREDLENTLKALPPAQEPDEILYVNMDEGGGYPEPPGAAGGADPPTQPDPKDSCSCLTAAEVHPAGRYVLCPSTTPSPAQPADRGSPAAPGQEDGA

[7] = target: MAP kinase-activated protein kinase 2 (Homo sapiens, UniProt P49137); experiment: Inhibition of MAPKAP-2
[8] = target: Proto-oncogene tyrosine-protein kinase Src (Homo sapiens, UniProt P12931); experiment: Inhibition of Src
[9] = target: Serine/threonine-protein kinase Chk2 (Homo sapiens, UniProt O96017); experiment: Inhibition of Chk2
Sequence of Serine/threonine-protein kinase Chk2 (O96017 whole entry): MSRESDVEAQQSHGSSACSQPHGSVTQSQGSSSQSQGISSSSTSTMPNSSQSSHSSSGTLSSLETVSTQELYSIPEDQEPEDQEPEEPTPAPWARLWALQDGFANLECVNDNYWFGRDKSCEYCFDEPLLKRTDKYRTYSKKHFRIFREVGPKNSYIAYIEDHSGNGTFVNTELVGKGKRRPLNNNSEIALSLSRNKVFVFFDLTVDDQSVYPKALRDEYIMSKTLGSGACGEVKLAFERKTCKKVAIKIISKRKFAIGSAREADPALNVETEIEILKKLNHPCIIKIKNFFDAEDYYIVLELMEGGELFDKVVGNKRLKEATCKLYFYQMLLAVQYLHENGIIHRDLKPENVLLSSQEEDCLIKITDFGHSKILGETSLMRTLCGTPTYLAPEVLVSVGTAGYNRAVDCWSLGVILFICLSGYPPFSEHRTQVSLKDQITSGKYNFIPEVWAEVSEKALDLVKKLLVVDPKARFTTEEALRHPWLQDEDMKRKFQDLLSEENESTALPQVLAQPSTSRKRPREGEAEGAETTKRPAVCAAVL

Sequence of Proto-oncogene tyrosine-protein kinase Src (P12931 2-536 limits assumed): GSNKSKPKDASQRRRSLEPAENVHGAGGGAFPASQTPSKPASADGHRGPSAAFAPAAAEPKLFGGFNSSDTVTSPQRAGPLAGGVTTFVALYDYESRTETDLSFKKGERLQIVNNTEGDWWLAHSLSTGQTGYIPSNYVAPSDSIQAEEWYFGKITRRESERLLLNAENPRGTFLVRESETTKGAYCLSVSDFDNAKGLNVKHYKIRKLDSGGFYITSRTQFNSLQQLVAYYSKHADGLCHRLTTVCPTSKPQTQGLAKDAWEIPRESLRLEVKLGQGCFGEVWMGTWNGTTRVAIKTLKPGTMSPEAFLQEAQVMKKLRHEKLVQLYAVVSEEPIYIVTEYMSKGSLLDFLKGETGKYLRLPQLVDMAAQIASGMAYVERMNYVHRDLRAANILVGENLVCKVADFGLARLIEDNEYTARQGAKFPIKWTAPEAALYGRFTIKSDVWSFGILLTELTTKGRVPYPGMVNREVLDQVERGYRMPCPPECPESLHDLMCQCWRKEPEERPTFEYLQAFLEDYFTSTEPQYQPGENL
Sequence of MAP kinase-activated protein kinase 2 (P49137 whole entry): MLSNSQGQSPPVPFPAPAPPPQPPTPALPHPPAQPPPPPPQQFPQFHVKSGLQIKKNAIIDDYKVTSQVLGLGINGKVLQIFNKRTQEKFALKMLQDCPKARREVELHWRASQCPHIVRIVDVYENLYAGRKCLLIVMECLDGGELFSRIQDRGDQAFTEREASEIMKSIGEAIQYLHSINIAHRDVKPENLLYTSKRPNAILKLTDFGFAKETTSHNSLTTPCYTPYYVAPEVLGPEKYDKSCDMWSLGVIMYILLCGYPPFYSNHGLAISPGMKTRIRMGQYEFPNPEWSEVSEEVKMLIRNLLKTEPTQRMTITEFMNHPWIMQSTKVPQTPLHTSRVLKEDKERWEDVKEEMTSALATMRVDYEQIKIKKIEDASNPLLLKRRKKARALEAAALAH
Sequence of Tyrosine-protein kinase Lck (P06239 whole entry): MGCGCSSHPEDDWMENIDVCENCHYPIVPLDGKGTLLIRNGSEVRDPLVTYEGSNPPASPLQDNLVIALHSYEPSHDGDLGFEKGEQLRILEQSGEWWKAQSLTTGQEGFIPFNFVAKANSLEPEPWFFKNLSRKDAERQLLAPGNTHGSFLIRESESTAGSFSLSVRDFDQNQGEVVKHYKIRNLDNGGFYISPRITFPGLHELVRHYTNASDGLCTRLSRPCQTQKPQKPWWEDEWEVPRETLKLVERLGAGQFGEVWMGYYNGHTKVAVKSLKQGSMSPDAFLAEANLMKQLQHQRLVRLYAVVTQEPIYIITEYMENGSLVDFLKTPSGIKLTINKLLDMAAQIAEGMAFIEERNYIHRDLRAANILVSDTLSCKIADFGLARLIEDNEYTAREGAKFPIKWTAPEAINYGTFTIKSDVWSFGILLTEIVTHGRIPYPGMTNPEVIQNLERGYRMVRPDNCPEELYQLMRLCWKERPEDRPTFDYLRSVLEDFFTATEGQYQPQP
Sequence of Casein kinase I isoform delta (P48730 whole entry, canonical isoform): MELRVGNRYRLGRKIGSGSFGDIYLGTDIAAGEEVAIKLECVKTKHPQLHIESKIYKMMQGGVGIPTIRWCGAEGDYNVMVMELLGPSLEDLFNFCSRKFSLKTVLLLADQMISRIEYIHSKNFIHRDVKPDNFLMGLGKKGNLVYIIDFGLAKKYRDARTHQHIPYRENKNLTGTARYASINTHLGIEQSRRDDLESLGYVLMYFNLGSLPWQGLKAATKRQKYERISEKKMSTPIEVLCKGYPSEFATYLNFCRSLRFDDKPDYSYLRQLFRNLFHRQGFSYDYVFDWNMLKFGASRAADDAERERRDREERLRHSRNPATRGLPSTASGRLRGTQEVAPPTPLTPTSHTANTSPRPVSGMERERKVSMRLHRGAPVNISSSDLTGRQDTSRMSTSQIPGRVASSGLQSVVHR

IC50 [1]	IC50 [2]	IC50 [3]	IC50 [4]	IC50 [5]	IC50 [6]	IC50 [7]	IC50 [8]	IC50 [9]	Structure (SMILES)
> 30 µM	2.44 µM	> 30 µM	11 µM	> 30 µM	5.25 µM	> 30 µM	> 30 µM	> 30 µM	O=C(c1cc2ccc(F)cc2[nH]1)N1C[C@]2(CCN(C3CCNC3)C2)c2ccccc21 (some centres undefined)
> 30 µM	6.93 µM	> 30 µM	–	> 30 µM	19.4 µM	> 30 µM	> 30 µM	> 30 µM	O=C(c1cc2cc(F)ccc2[nH]1)N1C[C@]2(CCN(C3CCCNC3)C2)c2ccccc21 (some centres undefined)
> 30 µM	2.34 µM	> 30 µM	6.61 µM	> 30 µM	18.4 µM	> 30 µM	> 30 µM	> 30 µM	C[C@@H]1CCC(N2CC[C@]3(CN(C(=O)c4cc5ccccc5[nH]4)c4ccccc43)C2)CN1 (some centres undefined)
–	0.97 µM	28.6 µM	1.73 µM	> 30 µM	23.8 µM	> 30 µM	> 30 µM	> 30 µM	C[C@@H]1CCC(N2CC[C@]3(CN(C(=O)c4cc5ccc(F)cc5[nH]4)c4ccccc43)C2)CN1 (some centres undefined)

Reference: ChEMBL document CHEMBL1933021, “Novel and selective spiroindoline-based inhibitors of Sky kinase” (Bioorg Med Chem Lett, 2012)
